Measurements from patent US7772241B2, “Variolin derivatives and their use as antitumor agents” (Pharma Mar S.A., priority 2001, dated 2010).
Like-named read-outs stand apart in the source and are kept apart here.

Tests used:
[1] = test system: DU-145; assay: Inhibition of cells growth by colorimetric (SRB) assay, DU-145
Method in brief: (§1)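 Human tumour cells seeded at 5×10^3/well in RPMI 1640 10% FBS, attached 18 h, then exposed 48 h to samples at 10 to 10^−8 μg/ml in DMSO/EtOH/PBS (0.5:0.5:99). Growth read by SRB staining after TCA fixation, OD 490 nm, triplicate wells; GI, TGI and LC derived.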

[2] = test system: LoVo; assay: Inhibition of cells growth by colorimetric (SRB) assay, LoVo; details: for CC50: read-out: LC50 LOVO
Method in brief: as §1

[3] = test system: SK-MEL-28; assay: Inhibition of cells growth by colorimetric (SRB) assay, SK-MEL-28
Method in brief: as §1

[4] = test system: HT-29; assay: Inhibition of cells growth by colorimetric (SRB) assay, HT-29; details: for GI50: read-out: GI50 HT-29
Method in brief: as §1

[5] = test system: SK-OV-3; assay: Inhibition of cells growth by colorimetric (SRB) assay, SK-OV-3
Method in brief: as §1

[6] = test system: IGROV-1; assay: Inhibition of cells growth by colorimetric (SRB) assay, IGROV-1
Method in brief: as §1

[7] = test system: LNCaP; assay: Inhibition of cells growth by colorimetric (SRB) assay, LNCaP; details: for GI50: read-out: GI50 LN-caP
Method in brief: as §1

[8] = test system: PANC-1; assay: Inhibition of cells growth by colorimetric (SRB) assay, PANC-1; details: for TGI PANC-1 / GI50: SRB assay, 48 hours exposure; for GI50: read-out: GI50 PANC-1
Method in brief: as §1

[9] = test system: LoVo-Dox; assay: Inhibition of cells growth by colorimetric (SRB) assay, LoVo-Dox
Method in brief: as §1

[10] = test system: K-562; assay: Inhibition of cells growth by colorimetric (SRB) assay, K-562; details: for GI50: read-out: GI50 K-562
Method in brief: as §1

[11] = test system: A-549; assay: Inhibition of cells growth by colorimetric (SRB) assay, A-549; details: for GI50: read-out: GI50 A-549
Method in brief: as §1

[12] = test system: SK-BR-3; assay: Inhibition of cells growth by colorimetric (SRB) assay, SK-BR-3
Method in brief: as §1

[13] = test system: HMEC1; assay: Inhibition of cells growth by colorimetric (SRB) assay, HMEC1; details: for TGI H-MEC-1: in M (unit assumed); for CC50: read-out: LC50 H-MEC-1
Text: The finality of these assays is to interrupt the growth of a “in vitro” tumor cell culture by means a continued exhibition of the cells to the sample to be testing.
This form of the assay employs 96 well cell culture microplates of 9 mm diameter (Faircloth, 1988; Mosmann, 1983). Most of the cell lines are obtained from American Type Culture Collection (ATCC) derived from different human cancer types.
Cells are maintained in RPMI 1640 10% FBS, supplemented with 0.1 g/l penicillin and 0.1 g/l streptomycin sulphate and then incubated at 37° C., 5% CO2 and 98% humidity. For the experiments, cells were harvested from subconfluent cultures using trypsin and resuspended in fresh medium before plating.
Cells are seeded in 96 well microtiter plates, at 5×10^3 cells per well in aliquots of 195 μl medium, and they are allowed to attach to the plate surface by growing in drug free medium for 18 hours. Afterward, samples are added in aliquots of 5 μl in a ranging from 10 to 10^−8 μg/ml, dissolved in DMSO/EtOH/PBS (0.5:0.5:99). After 48 hours exposure, the antitumor effect are measured by the SRB methodology: cells are fixed by adding 50 μl of cold 50% (wt/vol) trichloroacetic acid (TCA) and incubating for 60 minutes at 4° C. Plates are washed with deionized water and dried. One hundred μl of SRB solution (0.4% wt/vol in 1% acetic acid) is added to each microtiter well and incubated for 10 minutes at room temperature. Unbound SRB is removed by washing with 1% acetic acid. Plates are air dried and bound stain is solubilized with Tris buffer. Optical densities are read on a automated spectrophotometric plate reader at a single wavelength of 490 nm.
The values for mean +/−SD of data from triplicate wells are calculated. Some parameters for cellular responses can be calculated: GI=growth inhibition, TGI=total growth inhibition (cytostatic effect) and LC=cell killing (cytotoxic effect).

[14] = test system: IGROV-ET; assay: Inhibition of cells growth by colorimetric (SRB) assay, IGROV-ET
Method in brief: as §1

For `Cc1ccc2c(-c3ccnc(N)n3)c3ccnc(N)n3c2n1.Cl` [Compound 44], the GI50 ([1]; Homo sapiens, DU-145, 48 h, read-out: GI50 DU-145, SRB assay, 48 hours exposure) was 475 nM, the “TGI DU-145” value ([1]; SRB assay, 48 hours exposure) was 1.51E−06 and the GI50 ([2]; Homo sapiens, LoVo, 48 h, read-out: GI50 LOVO, SRB assay, 48 hours exposure) was 456 nM. The “TGI LOVO” value ([2]; SRB assay, 48 hours exposure) was 1.13E−06, the CC50 ([2]; SRB assay, 48 hours exposure) was 2750 nM and the GI50 ([3]; Homo sapiens, SK-MEL-28, 48 h, read-out: GI50 MEL-28, SRB assay, 48 hours exposure) was 601 nM. For the same compound, the CC50 ([3]; Homo sapiens, SK-MEL-28, 48 h, read-out: LC50 MEL-28, SRB assay, 48 hours exposure) was 8950 nM, the “TGI MEL-28” value ([3]; SRB assay, 48 hours exposure) was 2.11E−06 and the CC50 ([4]; Homo sapiens, HT-29, 48 h, read-out: LC50 HT-29, SRB assay, 48 hours exposure) was 27500 nM. The “TGI HT-29” value ([4]; SRB assay, 48 hours exposure) was 1.09E−05, the GI50 ([4]; SRB assay, 48 hours exposure) was 1090 nM and the CC50 ([5]; Homo sapiens, SK-OV-3, 48 h, read-out: LC50 SKOV-3, SRB assay, 48 hours exposure) was 27500 nM. The “TGI SKOV-3” value ([5]; SRB assay, 48 hours exposure) was 2.75E−05, the GI50 ([6]; Homo sapiens, IGROV-1, 48 h, read-out: GI50 IGROV, SRB assay, 48 hours exposure) was 1080 nM and the CC50 ([6]; Homo sapiens, IGROV-1, 48 h, read-out: LC50 IGROV, SRB assay, 48 hours exposure) was 24600 nM. The “TGI IGROV” value ([6]; SRB assay, 48 hours exposure) was 6.34E−06, the “TGI LN-caP” value ([7]; SRB assay, 48 hours exposure) was 7.85E−07 and the GI50 ([7]; SRB assay, 48 hours exposure) was 351 nM. For the same compound, the CC50 ([7]; read-out: LC50 LN-caP, SRB assay, 48 hours exposure) was 1760 nM, the CC50 ([8]; Homo sapiens, PANC-1, 48 h, read-out: LC50 PANC-1, SRB assay, 48 hours exposure) was 27500 nM and the “TGI PANC-1” value [8] was 9.94E−06. It also gave a GI50 [8] of 1710 nM, a GI50 ([9]; Homo sapiens, 48 h, read-out: GI50 LOVO-DOX, SRB assay, 48 hours exposure) of 777 nM and a CC50 ([9]; Homo sapiens, 48 h, read-out: LC50 LOVO-DOX, SRB assay, 48 hours exposure) of 23500 nM. The “TGI LOVO-DOX” value ([9]; SRB assay, 48 hours exposure) was 3.27E−06, the CC50 ([10]; Homo sapiens, K562, 48 h, read-out: LC50 K-562, SRB assay, 48 hours exposure) was 27500 nM and the “TGI K-562” value ([10]; SRB assay, 48 hours exposure) was 2.75E−05. The GI50 ([10]; SRB assay, 48 hours exposure) was 4170 nM, the CC50 ([11]; Homo sapiens, A549, 48 h, read-out: LC50 A-549, SRB assay, 48 hours exposure) was 27500 nM and the “TGI A-549” value ([11]; SRB assay, 48 hours exposure) was 2.75E−05. The GI50 ([11]; SRB assay, 48 hours exposure) was 9170 nM, the GI50 ([12]; Homo sapiens, SK-BR-3, 48 h, read-out: GI50 SK-BR-3, SRB assay, 48 hours exposure) was 612 nM and the CC50 ([12]; Homo sapiens, SK-BR-3, 48 h, read-out: LC50 SK-BR-3, SRB assay, 48 hours exposure) was 6310 nM. For the same compound, the “TGI SK-BR-3” value ([12]; SRB assay, 48 hours exposure) was 1.61E−06, the GI50 ([13]; Homo sapiens, HMEC-1, 48 h, read-out: GI50 H-MEC-1, SRB assay, 48 hours exposure) was 158 nM and the “TGI H-MEC-1” value ([13]; SRB assay, 48 hours exposure) was 3.07E−07. For the same compound, the CC50 ([13]; SRB assay, 48 hours exposure) was 1310 nM, the GI50 ([14]; Homo sapiens, 48 h, read-out: GI50 IGROV-ET, SRB assay, 48 hours exposure) was 568 nM and the CC50 ([14]; Homo sapiens, 48 h, read-out: LC50 IGROV-ET, SRB assay, 48 hours exposure) was 17200 nM. The “TGI IGROV-ET” value ([14]; SRB assay, 48 hours exposure) was 1.87E−06.
For `COc1nccc(-c2c3cccnc3n3c(N)nccc23)n1` [Compound 76], the “TGI DU-145” value ([1]; SRB assay, 48 hours exposure) was 1.42E−06, the GI50 ([1]; read-out: GI50 DU-145, SRB assay, 48 hours exposure) was 542 nM and the CC50 ([1]; read-out: LC50 DU-145, SRB assay, 48 hours exposure) was 3420 nM. The “TGI LOVO” value ([2]; SRB assay, 48 hours exposure) was 6.81E−07, the GI50 ([2]; read-out: GI50 LOVO, SRB assay, 48 hours exposure) was 163 nM and the CC50 ([2]; SRB assay, 48 hours exposure) was at least 34200 nM. The “TGI MEL-28” value ([3]; SRB assay, 48 hours exposure) was 8.01E−07, the GI50 ([3]; read-out: GI50 MEL-28, SRB assay, 48 hours exposure) was 359 nM and the CC50 ([3]; read-out: LC50 MEL-28, SRB assay, 48 hours exposure) was 1790 nM. For the same compound, the “TGI HT-29” value ([4]; SRB assay, 48 hours exposure) was 3.42E−06, the GI50 ([4]; SRB assay, 48 hours exposure) was 770 nM and the CC50 ([4]; read-out: LC50 HT-29, SRB assay, 48 hours exposure) was at least 34200 nM. The GI50 ([5]; Homo sapiens, SK-OV-3, 48 h, read-out: GI50 SKOV-3, SRB assay, 48 hours exposure) was 1220 nM, the “TGI SKOV-3” value ([5]; SRB assay, 48 hours exposure) was 3.42E−06 and the CC50 ([5]; read-out: LC50 SKOV-3, SRB assay, 48 hours exposure) was 34300 nM. The “TGI IGROV” value ([6]; SRB assay, 48 hours exposure) was 1.77E−06, the GI50 ([6]; read-out: GI50 IGROV, SRB assay, 48 hours exposure) was 725 nM and the CC50 ([6]; read-out: LC50 IGROV, SRB assay, 48 hours exposure) was 3420 nM. The CC50 ([7]; Homo sapiens, LNCaP, 48 h, read-out: LC50 LN-caP, SRB assay, 48 hours exposure) was 3080 nM, the “TGI LN-caP” value ([7]; SRB assay, 48 hours exposure) was 4.55E−07 and the GI50 ([7]; SRB assay, 48 hours exposure) was 72.9 nM. For the same compound, the “TGI PANC-1” value [8] was 2.15E−06, the GI50 [8] was 650 nM and the “TGI LOVO-DOX” value ([9]; SRB assay, 48 hours exposure) was 3.42E−07. The GI50 ([9]; read-out: GI50 LOVO-DOX, SRB assay, 48 hours exposure) was 773 nM, the CC50 ([9]; read-out: LC50 LOVO-DOX, SRB assay, 48 hours exposure) was at least 34200 nM and the “TGI K-562” value ([10]; SRB assay, 48 hours exposure) was 2.28E−06. For the same compound, the GI50 ([10]; SRB assay, 48 hours exposure) was 1020 nM, the CC50 ([10]; read-out: LC50 K-562, SRB assay, 48 hours exposure) was 5920 nM and the “TGI A-549” value ([11]; SRB assay, 48 hours exposure) was 1.49E−06. The GI50 ([11]; SRB assay, 48 hours exposure) was 407 nM, the CC50 ([11]; read-out: LC50 A-549, SRB assay, 48 hours exposure) was 7700 nM and the “TGI SK-BR-3” value ([12]; SRB assay, 48 hours exposure) was 1.21E−06. For the same compound, the GI50 ([12]; read-out: GI50 SK-BR-3, SRB assay, 48 hours exposure) was 541 nM, the CC50 ([12]; read-out: LC50 SK-BR-3, SRB assay, 48 hours exposure) was 2710 nM and the “TGI H-MEC-1” value ([13]; SRB assay, 48 hours exposure) was 2.27E−07. The GI50 ([13]; read-out: GI50 H-MEC-1, SRB assay, 48 hours exposure) was 77.7 nM, the CC50 ([13]; SRB assay, 48 hours exposure) was 1560 nM and the “TGI IGROV-ET” value ([14]; SRB assay, 48 hours exposure) was 2.04E−06. The GI50 ([14]; read-out: GI50 IGROV-ET, SRB assay, 48 hours exposure) was 649 nM and the CC50 ([14]; read-out: LC50 IGROV-ET, SRB assay, 48 hours exposure) was at least 34200 nM.
